Test results reported in ChEMBL document CHEMBL1201862, “PubChem BioAssay data set” (2004).
One block for each compound: values may come before it. The source made the active and inactive calls.

Legend:
[1] = target: T1, Short transient receptor potential channel 4 (Mus musculus, UniProt Q9QUQ5); assay: TRPC4 positive allosteric modulators, dose response, cell-based, HEK293 TRPC4/mu-opioid, Fluo-4 calcium, EC20 DAMGO (AID 434941); assay type: functional
T1 sequence (Q9QUQ5 whole entry): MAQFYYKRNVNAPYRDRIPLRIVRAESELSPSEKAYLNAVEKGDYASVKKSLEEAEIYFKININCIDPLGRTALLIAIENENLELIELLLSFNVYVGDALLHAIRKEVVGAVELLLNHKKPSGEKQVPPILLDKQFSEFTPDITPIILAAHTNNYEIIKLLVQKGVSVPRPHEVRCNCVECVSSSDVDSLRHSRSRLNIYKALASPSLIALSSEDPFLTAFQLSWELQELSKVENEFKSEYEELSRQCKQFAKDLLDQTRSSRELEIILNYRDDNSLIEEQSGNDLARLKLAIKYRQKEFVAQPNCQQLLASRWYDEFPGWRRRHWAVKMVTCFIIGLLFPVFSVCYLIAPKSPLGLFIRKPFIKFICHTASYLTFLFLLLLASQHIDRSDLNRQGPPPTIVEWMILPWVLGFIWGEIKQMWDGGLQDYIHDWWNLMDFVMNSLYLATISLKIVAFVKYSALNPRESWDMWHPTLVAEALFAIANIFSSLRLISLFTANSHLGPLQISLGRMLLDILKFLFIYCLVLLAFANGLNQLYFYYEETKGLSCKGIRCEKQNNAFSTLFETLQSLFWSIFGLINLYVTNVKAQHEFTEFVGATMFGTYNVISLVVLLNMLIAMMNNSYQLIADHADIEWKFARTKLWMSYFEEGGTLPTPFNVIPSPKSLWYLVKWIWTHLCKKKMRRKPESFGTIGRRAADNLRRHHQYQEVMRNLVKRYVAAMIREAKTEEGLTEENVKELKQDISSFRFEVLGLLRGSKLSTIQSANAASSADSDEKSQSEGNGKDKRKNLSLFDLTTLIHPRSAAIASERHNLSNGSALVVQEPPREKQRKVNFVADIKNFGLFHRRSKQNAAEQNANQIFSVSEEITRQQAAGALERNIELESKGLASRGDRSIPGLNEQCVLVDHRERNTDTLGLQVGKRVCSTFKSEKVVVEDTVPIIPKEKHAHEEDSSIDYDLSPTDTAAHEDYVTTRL

Hexokinase HKDC1 = target: T2, Hexokinase HKDC1 (Homo sapiens, UniProt Q2TB90); assay: HKDC1 hexokinase activators, dose response, biochemical, W721R variant (AID 504730); assay type: functional
T2 sequence (Q2TB90 whole entry): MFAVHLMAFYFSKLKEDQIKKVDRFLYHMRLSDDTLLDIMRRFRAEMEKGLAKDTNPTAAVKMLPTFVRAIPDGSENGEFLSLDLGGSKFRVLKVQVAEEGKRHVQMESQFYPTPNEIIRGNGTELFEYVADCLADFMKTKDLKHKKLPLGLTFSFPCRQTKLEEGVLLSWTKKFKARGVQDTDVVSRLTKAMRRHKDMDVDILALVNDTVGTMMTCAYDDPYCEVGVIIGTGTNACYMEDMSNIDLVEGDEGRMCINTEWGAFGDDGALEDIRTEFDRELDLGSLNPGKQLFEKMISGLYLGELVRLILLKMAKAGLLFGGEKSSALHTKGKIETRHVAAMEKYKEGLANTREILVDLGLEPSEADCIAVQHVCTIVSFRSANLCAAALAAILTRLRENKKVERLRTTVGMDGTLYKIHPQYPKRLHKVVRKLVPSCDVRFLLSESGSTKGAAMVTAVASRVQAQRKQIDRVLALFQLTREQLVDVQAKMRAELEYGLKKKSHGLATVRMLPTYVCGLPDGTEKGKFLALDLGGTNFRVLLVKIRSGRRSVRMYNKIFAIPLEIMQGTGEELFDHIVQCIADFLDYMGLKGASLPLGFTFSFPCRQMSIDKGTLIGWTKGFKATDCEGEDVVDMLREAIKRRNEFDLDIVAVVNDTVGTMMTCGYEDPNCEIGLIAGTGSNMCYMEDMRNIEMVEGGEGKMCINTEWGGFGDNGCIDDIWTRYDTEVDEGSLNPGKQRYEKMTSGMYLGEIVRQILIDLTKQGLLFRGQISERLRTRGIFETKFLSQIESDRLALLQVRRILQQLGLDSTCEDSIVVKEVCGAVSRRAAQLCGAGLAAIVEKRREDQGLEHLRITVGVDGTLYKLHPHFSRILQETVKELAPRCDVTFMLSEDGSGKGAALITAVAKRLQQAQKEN

[2] = target: T3, RNA-binding protein pos-1 (Caenorhabditis elegans, UniProt G5EF15); assay: inhibitors of POS-1/mex-3 RNA binding, dose response, biochemical, fluorescence polarization (AID 1964);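 note: purified POS-1 fused to maltose binding protein made in E. coli; potency of compounds blocking POS-1 binding to fluorescent RNA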
T3 sequence (G5EF15 whole entry): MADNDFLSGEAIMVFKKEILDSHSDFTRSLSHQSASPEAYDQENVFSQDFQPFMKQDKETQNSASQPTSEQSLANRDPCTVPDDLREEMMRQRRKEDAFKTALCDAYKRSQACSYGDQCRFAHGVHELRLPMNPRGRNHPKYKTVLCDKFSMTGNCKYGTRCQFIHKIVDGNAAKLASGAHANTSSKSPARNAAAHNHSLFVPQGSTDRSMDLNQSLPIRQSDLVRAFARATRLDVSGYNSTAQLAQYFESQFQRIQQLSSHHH

ORF 73 = ORF 73 (Human herpesvirus 8, UniProt O40947); assay: inhibitors of C-LANA binding to LBS DNA, dose response, biochemical, fluorescence polarization, cherry-picked samples (AID 504725); design: species or system Human gammaherpesvirus 8;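 note: fluorescence polarization of a labeled DNA duplex reporting LANA DNA binding; potency is for inhibitors that block LANA binding to the DNA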
[3] = target: T4, Zinc finger protein mex-5 (Caenorhabditis elegans, UniProt Q9XUB2); assay: MEX-5/TCR-2 RNA interaction inhibitors, dose response, biochemical, C. elegans, fluorescence polarization (AID 1960)
T4 sequence (Q9XUB2 whole entry): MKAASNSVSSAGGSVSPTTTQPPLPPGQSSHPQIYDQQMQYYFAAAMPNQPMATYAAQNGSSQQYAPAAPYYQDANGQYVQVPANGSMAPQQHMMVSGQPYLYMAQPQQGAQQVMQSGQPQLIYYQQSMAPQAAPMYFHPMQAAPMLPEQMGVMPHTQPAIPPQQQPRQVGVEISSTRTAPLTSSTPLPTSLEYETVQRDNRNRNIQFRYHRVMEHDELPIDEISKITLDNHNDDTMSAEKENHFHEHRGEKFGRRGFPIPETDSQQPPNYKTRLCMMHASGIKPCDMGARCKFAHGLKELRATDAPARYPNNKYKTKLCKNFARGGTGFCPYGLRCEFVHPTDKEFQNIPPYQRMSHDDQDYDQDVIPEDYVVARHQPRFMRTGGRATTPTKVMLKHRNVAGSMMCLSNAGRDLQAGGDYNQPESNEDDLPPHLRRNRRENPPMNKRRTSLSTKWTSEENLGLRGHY

[4] = target: T5, Corticotropin-releasing factor receptor 2/Corticotropin-releasing factor-binding protein (Homo sapiens, UniProt P24387+Q13324); assay: activators of CRF receptor 2 with binding protein – uHTS hits, confirmation (AID 602473); assay type: functional; settings: read-out: EC50_Mean
T5 sequence (Q13324 whole entry): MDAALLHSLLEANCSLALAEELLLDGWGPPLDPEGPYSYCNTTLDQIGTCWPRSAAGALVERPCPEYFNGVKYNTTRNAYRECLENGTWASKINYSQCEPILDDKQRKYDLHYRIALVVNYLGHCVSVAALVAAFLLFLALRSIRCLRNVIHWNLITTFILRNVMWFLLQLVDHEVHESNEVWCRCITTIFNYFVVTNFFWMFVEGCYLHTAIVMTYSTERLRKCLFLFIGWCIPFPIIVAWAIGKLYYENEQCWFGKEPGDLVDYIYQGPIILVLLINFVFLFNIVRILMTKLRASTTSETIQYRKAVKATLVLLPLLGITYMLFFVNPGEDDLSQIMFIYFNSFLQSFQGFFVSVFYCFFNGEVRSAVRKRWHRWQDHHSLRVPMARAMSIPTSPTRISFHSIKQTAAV
T5 sequence (P24387 whole entry): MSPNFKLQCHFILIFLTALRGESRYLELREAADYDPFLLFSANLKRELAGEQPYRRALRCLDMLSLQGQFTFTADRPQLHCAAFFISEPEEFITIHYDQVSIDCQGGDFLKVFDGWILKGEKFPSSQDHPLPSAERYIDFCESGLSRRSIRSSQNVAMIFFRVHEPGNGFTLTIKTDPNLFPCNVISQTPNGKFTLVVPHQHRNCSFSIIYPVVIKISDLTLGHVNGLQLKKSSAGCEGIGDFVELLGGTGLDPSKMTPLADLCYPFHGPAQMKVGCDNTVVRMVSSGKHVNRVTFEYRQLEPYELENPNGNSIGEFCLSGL

Troponin, cardiac muscle = Troponin, cardiac muscle (Homo sapiens, UniProt P19429+P45379+P63316); assay: Fluorescence-based biochemical high throughput dose response assay for activators of the calcium sensitivity of cardiac Regulated Thin Filaments (RTF). [Related pubchem assays (depositor defined):AID493008, AID493018, AID504382, AID504383]; assay type: protein-complex assay
[5] = target: T6, Calpain-2 catalytic subunit (Sus scrofa, UniProt P43367); assay: pig calpain II inhibitor potency, dose response, biochemical, fluorogenic peptide substrate (AID 1420); assay type: functional
T6 sequence (P43367 whole entry): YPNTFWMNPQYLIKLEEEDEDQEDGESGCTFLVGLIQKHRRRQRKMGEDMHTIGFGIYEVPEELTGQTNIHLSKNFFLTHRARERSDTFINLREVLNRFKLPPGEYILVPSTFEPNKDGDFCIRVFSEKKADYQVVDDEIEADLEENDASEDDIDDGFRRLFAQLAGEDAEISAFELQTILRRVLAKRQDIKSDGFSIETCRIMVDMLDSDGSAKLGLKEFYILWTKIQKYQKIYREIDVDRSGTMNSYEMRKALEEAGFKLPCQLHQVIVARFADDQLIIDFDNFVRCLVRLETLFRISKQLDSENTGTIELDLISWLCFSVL

Aminopeptidase N = target: T7, Aminopeptidase N (Plasmodium falciparum FcB1/Columbia, UniProt O96935); assay: P. falciparum M1AAP inhibitors, biochemical, fluorogenic H-Leu-NHMec substrate, 1536-well (AID 1445); design: species or system Plasmodium falciparum 3D7, 3D7
T7 sequence (O96935 whole entry): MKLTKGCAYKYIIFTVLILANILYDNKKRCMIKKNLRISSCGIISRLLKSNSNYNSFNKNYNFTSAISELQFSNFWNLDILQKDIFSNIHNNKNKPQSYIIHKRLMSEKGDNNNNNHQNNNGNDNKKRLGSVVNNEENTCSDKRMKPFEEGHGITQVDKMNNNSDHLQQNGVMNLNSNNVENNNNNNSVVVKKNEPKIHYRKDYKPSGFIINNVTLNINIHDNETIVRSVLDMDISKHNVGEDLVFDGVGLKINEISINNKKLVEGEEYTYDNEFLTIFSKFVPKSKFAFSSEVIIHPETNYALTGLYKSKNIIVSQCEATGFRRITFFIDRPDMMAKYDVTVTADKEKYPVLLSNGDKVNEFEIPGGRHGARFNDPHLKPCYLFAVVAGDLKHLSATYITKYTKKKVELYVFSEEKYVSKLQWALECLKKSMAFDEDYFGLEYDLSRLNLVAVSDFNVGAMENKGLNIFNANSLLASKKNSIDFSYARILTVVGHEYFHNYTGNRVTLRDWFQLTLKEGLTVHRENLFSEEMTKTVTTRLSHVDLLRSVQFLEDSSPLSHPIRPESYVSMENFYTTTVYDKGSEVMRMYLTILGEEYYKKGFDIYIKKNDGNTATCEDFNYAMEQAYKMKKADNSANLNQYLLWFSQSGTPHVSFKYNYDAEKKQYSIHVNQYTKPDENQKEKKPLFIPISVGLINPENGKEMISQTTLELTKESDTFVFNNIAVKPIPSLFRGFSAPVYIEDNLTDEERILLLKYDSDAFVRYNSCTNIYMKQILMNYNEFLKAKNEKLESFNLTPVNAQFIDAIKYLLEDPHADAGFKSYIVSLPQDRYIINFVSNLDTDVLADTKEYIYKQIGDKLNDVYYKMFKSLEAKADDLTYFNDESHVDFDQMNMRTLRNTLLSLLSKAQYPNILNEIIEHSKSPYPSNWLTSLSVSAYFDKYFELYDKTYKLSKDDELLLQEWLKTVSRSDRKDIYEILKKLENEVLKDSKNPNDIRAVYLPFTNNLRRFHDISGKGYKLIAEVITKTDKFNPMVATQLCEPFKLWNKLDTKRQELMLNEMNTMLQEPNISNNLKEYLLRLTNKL

[6] = target: Voltage-dependent T-type calcium channel subunit alpha-1H (Homo sapiens, UniProt O95180); assay: Cav3.2 T-type channel inhibitors, cell-based, synthetic library set 1, calcium flux (AID 493022); assay type: functional
Hexokinase = Hexokinase (Trypanosoma brucei, UniProt Q38C41); assay: Confirmation assay for inhibitors of Trypanosoma brucei hexokinase 1-Analogue-first series. [Related pubchem assays (depositor defined):AID1430, AID1632, AID2516, AID2560, AID2579, AID2600, AID449725, AID492951]; assay type: functional
[7] = target: T1, Short transient receptor potential channel 4; assay: mouse TRPC4 channel activators, dose response, cell-based, HEK293 TRPC4/mu-opioid, Fluo-4 calcium (AID 434937); assay type: functional

Sequence of Voltage-dependent T-type calcium channel subunit alpha-1H (O95180 whole entry): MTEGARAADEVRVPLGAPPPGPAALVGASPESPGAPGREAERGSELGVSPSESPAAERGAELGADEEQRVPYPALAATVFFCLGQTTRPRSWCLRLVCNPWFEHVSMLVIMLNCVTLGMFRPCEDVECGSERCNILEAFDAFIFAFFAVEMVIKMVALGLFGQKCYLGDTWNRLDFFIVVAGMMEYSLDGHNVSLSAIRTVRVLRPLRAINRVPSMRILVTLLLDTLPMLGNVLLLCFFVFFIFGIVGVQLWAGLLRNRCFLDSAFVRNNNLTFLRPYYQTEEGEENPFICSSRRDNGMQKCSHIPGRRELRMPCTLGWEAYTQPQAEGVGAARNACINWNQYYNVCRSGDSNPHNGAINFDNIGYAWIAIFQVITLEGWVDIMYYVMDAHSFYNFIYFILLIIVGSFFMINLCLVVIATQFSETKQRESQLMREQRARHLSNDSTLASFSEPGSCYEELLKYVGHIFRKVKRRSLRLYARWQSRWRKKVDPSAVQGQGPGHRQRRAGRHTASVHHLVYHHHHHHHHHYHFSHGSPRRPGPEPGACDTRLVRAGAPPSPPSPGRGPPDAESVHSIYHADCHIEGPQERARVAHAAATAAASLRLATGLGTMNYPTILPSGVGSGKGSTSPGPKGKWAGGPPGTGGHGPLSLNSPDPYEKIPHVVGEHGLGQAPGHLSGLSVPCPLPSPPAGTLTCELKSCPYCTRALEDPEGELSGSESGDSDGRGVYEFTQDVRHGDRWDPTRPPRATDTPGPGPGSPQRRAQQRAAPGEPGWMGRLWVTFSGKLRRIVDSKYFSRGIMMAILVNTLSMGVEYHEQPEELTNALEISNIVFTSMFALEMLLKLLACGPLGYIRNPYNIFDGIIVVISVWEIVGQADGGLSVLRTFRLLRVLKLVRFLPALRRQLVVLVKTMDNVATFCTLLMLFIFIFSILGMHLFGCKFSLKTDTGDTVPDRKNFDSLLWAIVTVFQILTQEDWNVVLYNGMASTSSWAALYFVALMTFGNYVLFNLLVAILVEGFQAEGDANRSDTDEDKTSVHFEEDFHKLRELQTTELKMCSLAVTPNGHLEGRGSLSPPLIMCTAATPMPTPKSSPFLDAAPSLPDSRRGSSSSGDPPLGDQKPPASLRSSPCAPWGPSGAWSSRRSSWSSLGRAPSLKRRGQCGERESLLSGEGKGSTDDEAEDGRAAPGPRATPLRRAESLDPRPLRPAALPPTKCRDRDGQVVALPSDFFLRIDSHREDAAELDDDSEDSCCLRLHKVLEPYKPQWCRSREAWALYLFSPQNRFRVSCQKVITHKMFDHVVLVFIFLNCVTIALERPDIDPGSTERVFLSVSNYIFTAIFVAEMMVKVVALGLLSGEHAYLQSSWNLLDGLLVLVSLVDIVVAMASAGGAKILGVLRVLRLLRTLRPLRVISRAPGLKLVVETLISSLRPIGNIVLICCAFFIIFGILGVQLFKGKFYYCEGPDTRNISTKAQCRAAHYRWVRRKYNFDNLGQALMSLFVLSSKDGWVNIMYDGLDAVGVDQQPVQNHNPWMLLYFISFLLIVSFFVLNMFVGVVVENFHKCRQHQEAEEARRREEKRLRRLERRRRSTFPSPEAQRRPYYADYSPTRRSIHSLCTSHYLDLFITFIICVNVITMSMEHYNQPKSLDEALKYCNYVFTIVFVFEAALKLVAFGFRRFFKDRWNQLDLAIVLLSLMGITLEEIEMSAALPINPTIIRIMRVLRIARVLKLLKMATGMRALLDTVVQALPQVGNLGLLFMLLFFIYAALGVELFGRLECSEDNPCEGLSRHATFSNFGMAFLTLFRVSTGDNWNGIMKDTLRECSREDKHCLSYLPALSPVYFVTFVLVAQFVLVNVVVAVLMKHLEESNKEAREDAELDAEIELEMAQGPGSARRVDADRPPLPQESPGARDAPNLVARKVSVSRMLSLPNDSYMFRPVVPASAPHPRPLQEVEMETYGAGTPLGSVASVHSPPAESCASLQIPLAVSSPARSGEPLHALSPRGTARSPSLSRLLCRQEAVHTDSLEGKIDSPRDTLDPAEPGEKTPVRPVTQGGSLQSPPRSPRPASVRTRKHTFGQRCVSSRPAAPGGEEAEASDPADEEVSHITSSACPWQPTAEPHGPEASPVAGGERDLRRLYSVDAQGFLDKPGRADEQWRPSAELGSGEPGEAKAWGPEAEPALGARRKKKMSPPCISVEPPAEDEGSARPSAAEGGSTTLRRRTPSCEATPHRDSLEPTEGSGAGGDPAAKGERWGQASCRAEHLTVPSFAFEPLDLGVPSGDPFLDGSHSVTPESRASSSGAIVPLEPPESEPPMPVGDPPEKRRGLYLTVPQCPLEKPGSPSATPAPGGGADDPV
Sequence of Hexokinase (Q38C41 whole entry): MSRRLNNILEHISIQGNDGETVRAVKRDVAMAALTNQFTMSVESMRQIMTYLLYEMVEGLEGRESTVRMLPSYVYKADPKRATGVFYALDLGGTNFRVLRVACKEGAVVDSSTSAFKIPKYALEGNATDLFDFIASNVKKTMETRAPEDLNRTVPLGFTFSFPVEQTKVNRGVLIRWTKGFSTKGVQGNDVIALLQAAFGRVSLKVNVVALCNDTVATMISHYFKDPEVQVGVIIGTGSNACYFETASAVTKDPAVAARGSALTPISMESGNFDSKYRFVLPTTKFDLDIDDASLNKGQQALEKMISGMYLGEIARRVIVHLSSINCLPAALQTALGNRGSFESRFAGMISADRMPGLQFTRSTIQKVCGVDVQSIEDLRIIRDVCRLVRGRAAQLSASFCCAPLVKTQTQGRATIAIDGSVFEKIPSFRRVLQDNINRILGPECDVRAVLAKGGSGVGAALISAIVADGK
Sequence of ORF 73 (O40947 whole entry): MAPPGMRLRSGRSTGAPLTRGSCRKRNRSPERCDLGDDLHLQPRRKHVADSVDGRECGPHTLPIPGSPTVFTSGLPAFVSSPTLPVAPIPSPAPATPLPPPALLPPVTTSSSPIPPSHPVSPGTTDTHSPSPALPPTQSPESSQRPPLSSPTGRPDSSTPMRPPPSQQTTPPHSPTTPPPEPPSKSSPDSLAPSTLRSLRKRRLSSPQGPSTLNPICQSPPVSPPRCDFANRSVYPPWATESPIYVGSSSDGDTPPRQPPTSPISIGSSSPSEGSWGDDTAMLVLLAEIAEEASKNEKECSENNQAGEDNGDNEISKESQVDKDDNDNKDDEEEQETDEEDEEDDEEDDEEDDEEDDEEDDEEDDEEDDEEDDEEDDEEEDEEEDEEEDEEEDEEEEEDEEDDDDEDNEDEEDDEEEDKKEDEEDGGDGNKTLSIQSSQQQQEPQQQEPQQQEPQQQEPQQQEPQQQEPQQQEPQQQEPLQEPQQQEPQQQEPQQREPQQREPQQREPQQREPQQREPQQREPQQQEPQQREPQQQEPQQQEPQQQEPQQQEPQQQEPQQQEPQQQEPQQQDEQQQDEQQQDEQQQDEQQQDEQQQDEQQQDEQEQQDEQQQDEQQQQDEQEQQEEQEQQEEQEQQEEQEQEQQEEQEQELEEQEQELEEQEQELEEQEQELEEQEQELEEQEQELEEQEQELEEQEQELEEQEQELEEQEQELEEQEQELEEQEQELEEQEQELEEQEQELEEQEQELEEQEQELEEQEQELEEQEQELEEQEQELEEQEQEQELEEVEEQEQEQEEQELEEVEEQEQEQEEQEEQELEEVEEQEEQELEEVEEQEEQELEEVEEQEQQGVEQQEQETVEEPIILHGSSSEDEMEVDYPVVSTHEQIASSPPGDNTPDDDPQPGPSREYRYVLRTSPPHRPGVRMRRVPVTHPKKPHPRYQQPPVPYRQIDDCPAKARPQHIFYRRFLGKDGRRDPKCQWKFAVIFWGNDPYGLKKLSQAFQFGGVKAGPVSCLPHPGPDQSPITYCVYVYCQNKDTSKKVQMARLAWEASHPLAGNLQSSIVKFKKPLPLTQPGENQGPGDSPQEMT

SMILES: Clc1ccc(C2=CC(c3ccco3)n3ncnc3N2)cc1 (configuration not stated)
EC50 [2]: 24.7 µM (inconclusive)
AC50 (ORF 73): 171 µM (active)
EC50 [3]: 3.36 µM (active)
EC50 [4]: 8.29 µM (active)

SMILES: COc1ccc(/C=C/C(=O)NC(=S)Nc2ccc(C(=O)O)cc2)cc1
EC50 (Troponin, cardiac muscle): > 71.5 µM (inactive)
IC50 [5]: > 50 µM (not active)
IC50 (Aminopeptidase N): 53 µM (active)

SMILES: CC(Oc1ccccc1)C(=O)Nc1nnc(-c2ccc3c(c2)OCCO3)o1 (configuration not stated)
EC50 [6]: 10 µM (active)

SMILES: COc1ccccc1NS(=O)(=O)c1cc([N+](=O)[O-])ccc1N/N=C/c1c(C)[nH]c2ccccc12
EC50 (Troponin, cardiac muscle): 2.57 µM (active)

SMILES: O=C(c1ccccc1)n1sc2ccccc2c1=O
IC50 (Hexokinase): > 25 µM (inactive)

SMILES: CCOC(=O)c1c(NC(=O)COC(=O)Cc2c[nH]c3ccccc23)sc(C(=O)N(C)C)c1C
EC50 [1]: 0.42 µM (active)
EC50 [7]: 5.96 µM (active)

SMILES: Cc1ccccc1NC(=O)Cn1sc2ccccc2c1=O
IC50 (Hexokinase): 8.52 µM (active)

More lines, now with the values ahead:

EC50 [1]: 0.67 µM (active)
SMILES: COc1ccc(Cl)cc1C(=O)NCCN(C)C

EC50 (Hexokinase HKDC1): > 80 µM (inactive)
SMILES: COc1ccc(NC(=O)Cc2c[nH]c3ccccc23)cc1S(=O)(=O)N1CCCCC1

EC50 (Hexokinase HKDC1): > 80 µM (inactive)
SMILES: CCN(CC)C(=O)c1ccc(C(=O)c2c(C)cc(C)cc2C)cc1

EC50 [6]: 1.1 µM (active)
SMILES: O=C(COc1ccc(F)cc1Cl)Nc1nnc(-c2ccc(F)c(F)c2)o1
